What was measured:
[1] = biological target: T1, Thyroid hormone receptor beta (Homo sapiens, UniProt P10828); test: Binding affinity towards thyroid hormone receptor (hTR beta 1)
T1 sequence (P10828 whole entry): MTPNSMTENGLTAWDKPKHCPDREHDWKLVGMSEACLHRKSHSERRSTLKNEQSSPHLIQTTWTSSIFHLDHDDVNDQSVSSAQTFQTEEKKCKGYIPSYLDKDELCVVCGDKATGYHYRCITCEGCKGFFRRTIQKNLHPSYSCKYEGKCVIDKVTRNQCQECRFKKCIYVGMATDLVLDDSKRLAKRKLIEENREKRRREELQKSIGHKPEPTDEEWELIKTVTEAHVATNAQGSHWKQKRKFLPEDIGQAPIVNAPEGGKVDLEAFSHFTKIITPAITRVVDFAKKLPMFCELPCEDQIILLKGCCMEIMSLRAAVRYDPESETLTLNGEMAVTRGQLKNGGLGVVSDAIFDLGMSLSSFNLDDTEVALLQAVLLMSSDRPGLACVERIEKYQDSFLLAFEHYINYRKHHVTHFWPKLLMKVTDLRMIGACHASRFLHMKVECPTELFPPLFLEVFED

[2] = biological target: T2, Thyroid hormone receptor alpha (Homo sapiens, UniProt P10827); test: Binding affinity towards thyroid hormone receptor (hTR alpha 1)
T2 sequence (P10827 whole entry): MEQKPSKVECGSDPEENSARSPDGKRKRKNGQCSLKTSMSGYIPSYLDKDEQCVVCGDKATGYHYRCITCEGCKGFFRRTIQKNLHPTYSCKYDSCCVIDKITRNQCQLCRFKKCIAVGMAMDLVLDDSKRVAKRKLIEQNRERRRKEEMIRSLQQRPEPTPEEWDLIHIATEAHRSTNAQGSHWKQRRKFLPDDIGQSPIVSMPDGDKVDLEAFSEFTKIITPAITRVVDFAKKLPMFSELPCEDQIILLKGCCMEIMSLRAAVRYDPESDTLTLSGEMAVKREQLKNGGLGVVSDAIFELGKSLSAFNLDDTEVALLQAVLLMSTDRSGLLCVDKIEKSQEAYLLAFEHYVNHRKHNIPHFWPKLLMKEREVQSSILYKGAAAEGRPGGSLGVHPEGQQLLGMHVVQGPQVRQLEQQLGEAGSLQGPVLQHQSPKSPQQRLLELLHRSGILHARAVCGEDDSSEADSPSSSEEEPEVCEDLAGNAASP

Kd [1] [nM] | Kd [2] [nM] | Compound
3600 | 1400 | Cc1cc(OCC(=O)O)cc(C)c1C(CCCO)c1ccc(O)c(C(C)C)c1 (stereo not given)
720 | 240 | CCCCN(C)C(=O)CCCCCC/C=C\CCC(c1ccc(O)c(C(C)C)c1)c1c(C)cc(OCC(=O)O)cc1C (stereo not given)
148 | 112 | CCCCN(C)C(=O)CCCCCCCCCCC(c1ccc(O)c(C(C)C)c1)c1c(C)cc(OCC(=O)O)cc1C (stereo not given)
90 | 430 | C=CCC(c1ccc(O)c(C(C)C)c1)c1c(C)cc(OCC(=O)O)cc1C (stereo not given)
4200 | 1400 | COc1ccc(C(c2ccc(O)c(C(C)C)c2)c2c(C)cc(OCC(=O)O)cc2C)c(OC)c1 (stereo not given)
